Experiments:
Assay in all cases: Competitive cysteine profiling of cell lysate with desthiobiotin iodoacetamide probe (96-well sample prep)
Format in all cases: binding
[1] = biological target: T1, cysteine residue illustrated in Table 1A or Table 2A (Homo sapiens, UniProt Q5VU92); conditions: UniProt Q5VU92
T1 construct: Cells were resuspended in cold PBS on ice and sonicated with a probe sonicator to achieve lysis; endogenous in cells
How it was run: (§1)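 Sonicated cell lysate (5 mg/ml proteome) was preincubated with compound 1 h at 25 °C, then labelled with desthiobiotin iodoacetamide probe 1 h at 25 °C. After reduction, alkylation and trypsin digestion, probe-labelled peptides were streptavidin-enriched and eluted for mass-spectrometric analysis.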

[2] = biological target: T2, cysteine residue illustrated in Table 1A or Table 2A (Homo sapiens, UniProt Q9Y6I7); conditions: UniProt Q9Y6I7; KB02 100 uM
T2 construct: Cells were resuspended in cold PBS on ice and sonicated with a probe sonicator to achieve lysis; endogenous in cells
How it was run: as §1

[3] = biological target: T3, cysteine residue illustrated in Table 1A or Table 2A (Homo sapiens, UniProt Q6ZT12); conditions: UniProt Q6ZT12; KB05 100 uM
T3 construct: Cells were resuspended in cold PBS on ice and sonicated with a probe sonicator to achieve lysis; endogenous in cells
How it was run: as §1

[4] = biological target: T4, cysteine residue illustrated in Table 1A or Table 2A (Homo sapiens, UniProt P49754); conditions: UniProt P49754; KB05 100 uM
T4 construct: Cells were resuspended in cold PBS on ice and sonicated with a probe sonicator to achieve lysis; endogenous in cells
How it was run: as §1

[5] = biological target: T5, cysteine residue illustrated in Table 1A or Table 2A (Homo sapiens, UniProt Q7Z6J8); conditions: UniProt Q7Z6J8; KB05 100 uM
T5 construct: Cells were resuspended in cold PBS on ice and sonicated with a probe sonicator to achieve lysis; endogenous in cells
How it was run: as §1

[6] = biological target: T6, cysteine residue illustrated in Table 1A or Table 2A (Homo sapiens, UniProt Q13617); conditions: UniProt Q13617; 100 uM
T6 construct: Cells were resuspended in cold PBS on ice and sonicated with a probe sonicator to achieve lysis; endogenous in cells
How it was run: as §1

[7] = biological target: T7, cysteine residue illustrated in Table 1A or Table 2A (Homo sapiens, UniProt Q9UBI1); conditions: UniProt Q9UBI1; 500 uM
T7 construct: Cells were resuspended in cold PBS on ice and sonicated with a probe sonicator to achieve lysis; endogenous in cells
How it was run: as §1

[8] = biological target: T8, cysteine residue illustrated in Table 1A or Table 2A (Homo sapiens, UniProt Q9NZJ0); conditions: UniProt Q9NZJ0; 500 uM
T8 construct: Cells were resuspended in cold PBS on ice and sonicated with a probe sonicator to achieve lysis; endogenous in cells
How it was run: as §1

[9] = biological target: T9, cysteine residue illustrated in Table 1A or Table 2A (Homo sapiens, UniProt Q6FIF0); conditions: UniProt Q6FIF0; KB03 100 uM
T9 construct: Cells were resuspended in cold PBS on ice and sonicated with a probe sonicator to achieve lysis; endogenous in cells
How it was run: as §1

[10] = biological target: T10, cysteine residue illustrated in Table 1A or Table 2A (Homo sapiens, UniProt Q5T4S7); conditions: UniProt Q5T4S7; KB03 500 uM
T10 construct: Cells were resuspended in cold PBS on ice and sonicated with a probe sonicator to achieve lysis; endogenous in cells
How it was run: as §1

[11] = biological target: T11, cysteine residue illustrated in Table 1A or Table 2A (Homo sapiens, UniProt Q9H0M0); conditions: UniProt Q9H0M0; KB03 100 uM
T11 construct: Cells were resuspended in cold PBS on ice and sonicated with a probe sonicator to achieve lysis; endogenous in cells
How it was run: as §1

[12] = biological target: T12, cysteine residue illustrated in Table 1A or Table 2A (Homo sapiens, UniProt O95159); conditions: UniProt O95159; KB03 100 uM
T12 construct: Cells were resuspended in cold PBS on ice and sonicated with a probe sonicator to achieve lysis; endogenous in cells
How it was run: as §1

[13] = biological target: T13, cysteine residue illustrated in Table 1A or Table 2A (Homo sapiens, UniProt Q58WW2); conditions: UniProt Q58WW2; 100 uM
T13 construct: Cells were resuspended in cold PBS on ice and sonicated with a probe sonicator to achieve lysis; endogenous in cells
How it was run: as §1

T1 sequence (Q5VU92 whole entry): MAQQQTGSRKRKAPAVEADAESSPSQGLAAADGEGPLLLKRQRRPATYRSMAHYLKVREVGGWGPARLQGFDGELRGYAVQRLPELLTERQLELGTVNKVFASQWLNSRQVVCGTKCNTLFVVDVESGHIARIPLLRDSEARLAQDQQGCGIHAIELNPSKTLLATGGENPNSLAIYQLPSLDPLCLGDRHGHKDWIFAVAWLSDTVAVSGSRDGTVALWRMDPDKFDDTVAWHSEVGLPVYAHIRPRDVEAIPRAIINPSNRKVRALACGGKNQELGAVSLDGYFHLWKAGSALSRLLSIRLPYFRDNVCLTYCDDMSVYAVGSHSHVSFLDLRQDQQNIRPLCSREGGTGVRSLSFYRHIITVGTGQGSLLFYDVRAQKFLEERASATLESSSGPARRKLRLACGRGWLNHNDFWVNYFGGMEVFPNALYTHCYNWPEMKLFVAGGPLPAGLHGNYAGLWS
T8 sequence (Q9NZJ0 whole entry): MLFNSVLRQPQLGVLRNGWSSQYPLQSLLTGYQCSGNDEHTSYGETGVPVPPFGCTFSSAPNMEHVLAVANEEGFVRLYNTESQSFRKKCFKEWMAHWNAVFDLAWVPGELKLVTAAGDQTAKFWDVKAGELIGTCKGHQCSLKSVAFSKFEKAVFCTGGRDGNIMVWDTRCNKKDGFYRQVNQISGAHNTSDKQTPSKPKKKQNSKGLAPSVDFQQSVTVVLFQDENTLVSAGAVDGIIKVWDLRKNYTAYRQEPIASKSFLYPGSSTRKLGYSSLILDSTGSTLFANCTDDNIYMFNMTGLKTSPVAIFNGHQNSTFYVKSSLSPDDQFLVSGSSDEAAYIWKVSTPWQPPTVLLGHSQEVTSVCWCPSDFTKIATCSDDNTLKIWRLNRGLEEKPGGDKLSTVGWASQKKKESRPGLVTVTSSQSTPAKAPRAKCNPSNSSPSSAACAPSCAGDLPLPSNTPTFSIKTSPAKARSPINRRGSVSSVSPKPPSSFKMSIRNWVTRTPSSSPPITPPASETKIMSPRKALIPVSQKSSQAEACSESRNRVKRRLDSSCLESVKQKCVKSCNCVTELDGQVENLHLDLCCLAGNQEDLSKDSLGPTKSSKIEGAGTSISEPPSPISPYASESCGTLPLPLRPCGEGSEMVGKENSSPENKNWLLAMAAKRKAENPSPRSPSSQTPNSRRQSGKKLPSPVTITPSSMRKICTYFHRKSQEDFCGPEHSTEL
T2 sequence (Q9Y6I7 whole entry): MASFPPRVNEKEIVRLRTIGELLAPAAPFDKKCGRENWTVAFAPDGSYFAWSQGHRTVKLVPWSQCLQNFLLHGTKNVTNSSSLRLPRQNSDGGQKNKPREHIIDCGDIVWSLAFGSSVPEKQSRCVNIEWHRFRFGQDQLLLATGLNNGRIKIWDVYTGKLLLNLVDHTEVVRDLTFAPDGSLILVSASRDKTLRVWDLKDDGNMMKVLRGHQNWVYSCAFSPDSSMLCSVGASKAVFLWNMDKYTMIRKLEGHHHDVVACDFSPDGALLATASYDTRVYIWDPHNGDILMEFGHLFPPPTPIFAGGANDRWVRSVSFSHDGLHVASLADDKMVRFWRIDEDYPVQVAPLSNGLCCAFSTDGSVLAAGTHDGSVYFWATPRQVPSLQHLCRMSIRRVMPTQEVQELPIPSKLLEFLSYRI
T11 sequence (Q9H0M0 whole entry): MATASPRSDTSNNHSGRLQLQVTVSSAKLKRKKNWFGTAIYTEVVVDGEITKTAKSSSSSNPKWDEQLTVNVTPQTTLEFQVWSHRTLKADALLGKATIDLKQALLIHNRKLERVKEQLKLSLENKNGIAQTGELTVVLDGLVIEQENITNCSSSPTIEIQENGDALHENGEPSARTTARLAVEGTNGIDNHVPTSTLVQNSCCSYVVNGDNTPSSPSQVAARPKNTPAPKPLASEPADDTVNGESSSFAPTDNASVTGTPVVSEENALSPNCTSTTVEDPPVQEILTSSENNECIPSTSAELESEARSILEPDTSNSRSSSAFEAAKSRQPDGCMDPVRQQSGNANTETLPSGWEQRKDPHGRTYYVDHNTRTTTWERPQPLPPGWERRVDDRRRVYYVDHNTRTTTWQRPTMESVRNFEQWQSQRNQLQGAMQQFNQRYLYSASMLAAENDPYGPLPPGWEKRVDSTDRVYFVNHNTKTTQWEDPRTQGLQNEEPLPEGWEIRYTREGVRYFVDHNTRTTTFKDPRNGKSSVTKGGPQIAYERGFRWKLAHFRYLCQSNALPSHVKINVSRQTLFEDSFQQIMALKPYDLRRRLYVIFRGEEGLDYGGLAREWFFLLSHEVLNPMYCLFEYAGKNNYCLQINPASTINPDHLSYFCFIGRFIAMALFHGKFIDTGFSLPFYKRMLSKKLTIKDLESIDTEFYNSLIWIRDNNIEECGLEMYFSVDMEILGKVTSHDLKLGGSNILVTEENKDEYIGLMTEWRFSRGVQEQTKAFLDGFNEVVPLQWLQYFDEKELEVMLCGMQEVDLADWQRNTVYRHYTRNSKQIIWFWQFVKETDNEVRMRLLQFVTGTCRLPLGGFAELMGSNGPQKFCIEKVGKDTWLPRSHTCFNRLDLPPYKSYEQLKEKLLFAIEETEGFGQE
T4 sequence (P49754 whole entry): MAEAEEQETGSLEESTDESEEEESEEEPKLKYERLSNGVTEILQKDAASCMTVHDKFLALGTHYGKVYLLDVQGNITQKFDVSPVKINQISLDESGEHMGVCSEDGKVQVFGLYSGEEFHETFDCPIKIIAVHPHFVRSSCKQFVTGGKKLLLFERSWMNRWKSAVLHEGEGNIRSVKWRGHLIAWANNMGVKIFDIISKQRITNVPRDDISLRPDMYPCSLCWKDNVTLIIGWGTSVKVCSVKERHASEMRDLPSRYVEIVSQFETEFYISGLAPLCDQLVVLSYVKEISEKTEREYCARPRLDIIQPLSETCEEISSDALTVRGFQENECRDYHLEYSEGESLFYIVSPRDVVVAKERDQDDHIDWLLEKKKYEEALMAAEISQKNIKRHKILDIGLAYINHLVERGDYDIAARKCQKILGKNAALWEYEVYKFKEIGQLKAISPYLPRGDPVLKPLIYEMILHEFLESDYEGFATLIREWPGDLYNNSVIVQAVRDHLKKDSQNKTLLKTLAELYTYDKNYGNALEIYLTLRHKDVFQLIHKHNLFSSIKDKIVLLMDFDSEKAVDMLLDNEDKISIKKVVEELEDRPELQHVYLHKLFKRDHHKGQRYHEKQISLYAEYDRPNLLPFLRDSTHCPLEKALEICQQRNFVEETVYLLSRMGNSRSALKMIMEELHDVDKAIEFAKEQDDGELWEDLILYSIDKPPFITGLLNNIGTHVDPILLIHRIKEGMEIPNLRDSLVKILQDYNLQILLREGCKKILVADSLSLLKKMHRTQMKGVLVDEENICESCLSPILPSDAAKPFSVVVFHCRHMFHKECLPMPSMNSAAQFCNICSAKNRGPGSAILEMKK
T9 sequence (Q6FIF0 whole entry): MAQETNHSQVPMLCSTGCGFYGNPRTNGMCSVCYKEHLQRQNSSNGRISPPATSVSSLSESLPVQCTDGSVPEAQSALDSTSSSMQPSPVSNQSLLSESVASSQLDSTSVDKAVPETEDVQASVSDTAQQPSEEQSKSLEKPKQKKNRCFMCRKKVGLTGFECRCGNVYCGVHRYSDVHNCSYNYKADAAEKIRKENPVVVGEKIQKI
T12 sequence (O95159 whole entry): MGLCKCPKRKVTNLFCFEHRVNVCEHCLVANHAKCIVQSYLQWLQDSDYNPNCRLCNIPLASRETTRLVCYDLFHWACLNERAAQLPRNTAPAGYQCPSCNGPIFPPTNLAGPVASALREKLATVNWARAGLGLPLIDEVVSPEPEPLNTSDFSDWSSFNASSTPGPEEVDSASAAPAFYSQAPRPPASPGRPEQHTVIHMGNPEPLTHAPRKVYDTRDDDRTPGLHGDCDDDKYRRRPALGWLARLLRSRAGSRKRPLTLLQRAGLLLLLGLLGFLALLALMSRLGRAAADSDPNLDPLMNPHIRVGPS
T6 sequence (Q13617 whole entry): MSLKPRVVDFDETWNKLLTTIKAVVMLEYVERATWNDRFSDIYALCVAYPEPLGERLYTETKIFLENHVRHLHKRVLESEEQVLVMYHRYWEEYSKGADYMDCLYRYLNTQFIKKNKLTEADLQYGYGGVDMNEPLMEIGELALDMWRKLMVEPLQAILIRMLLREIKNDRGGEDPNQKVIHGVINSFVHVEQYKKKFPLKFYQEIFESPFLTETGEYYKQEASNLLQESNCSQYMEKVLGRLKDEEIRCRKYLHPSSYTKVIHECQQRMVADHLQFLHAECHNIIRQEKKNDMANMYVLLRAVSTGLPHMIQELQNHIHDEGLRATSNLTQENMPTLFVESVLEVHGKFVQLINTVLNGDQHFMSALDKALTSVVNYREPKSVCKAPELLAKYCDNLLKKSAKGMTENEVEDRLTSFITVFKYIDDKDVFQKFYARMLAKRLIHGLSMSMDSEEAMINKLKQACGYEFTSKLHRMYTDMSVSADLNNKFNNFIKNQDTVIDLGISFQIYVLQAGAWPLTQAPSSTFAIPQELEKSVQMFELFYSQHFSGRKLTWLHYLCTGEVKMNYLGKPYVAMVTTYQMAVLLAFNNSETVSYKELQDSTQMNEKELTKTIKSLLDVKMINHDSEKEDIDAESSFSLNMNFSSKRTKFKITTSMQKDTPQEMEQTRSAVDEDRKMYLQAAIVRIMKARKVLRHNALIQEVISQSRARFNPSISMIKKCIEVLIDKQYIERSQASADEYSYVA
T7 sequence (Q9UBI1 whole entry): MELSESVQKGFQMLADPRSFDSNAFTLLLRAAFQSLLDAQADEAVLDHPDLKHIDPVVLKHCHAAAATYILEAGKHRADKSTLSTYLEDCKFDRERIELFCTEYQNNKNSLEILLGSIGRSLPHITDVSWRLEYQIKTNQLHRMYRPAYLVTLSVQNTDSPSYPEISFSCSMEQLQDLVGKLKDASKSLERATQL

## COc1ccc2c(c1)CCCN2C(=O)CCl [KB02]
[1]; 100 uM
  KB02_100 uM_percent_inhibition: 25%
[1]; 500 uM
  KB02_500 uM_percent_inhibition: 29%
[2]
  KB02_100 uM_percent_inhibition: 5%

## C=CC(=O)N(c1ccccc1)c1ccc(Br)cc1 [KB05]
[3]
  KB05_100 uM_percent_inhibition: 41%
[4]
  KB05_100 uM_percent_inhibition: 10%
[5]
  KB05_100 uM_percent_inhibition: 13%

## O=C(CCl)Nc1cc(C(F)(F)F)cc(C(F)(F)F)c1 [KBO3]
[6]
  KB03_100 uM_percent_inhibition: 30%
[7]
  KB03_500 uM_percent_inhibition: 29%
[8]
  KB03_500 uM_percent_inhibition: 69%
[9]
  KB03_100 uM_percent_inhibition: 8%
[10]
  KB03_500 uM_percent_inhibition: 69%
[11]
  KB03_100 uM_percent_inhibition: 61%
[12]
  KB03_100 uM_percent_inhibition: 15%
[13]
  KB03_100 uM_percent_inhibition: 67%
